Results taken from patent publication US20240390446A1, “COMPOSITIONS AND METHODS FOR TREATING OR PREVENTING INFLAMMATORY DISEASES INCLUDING DIABETES AND THYROID DISEASES” (priority 2021, published 2024).

Assay: Case report: blood glucose levels in pregnant with gestational diabetes given sesame oil and Nigella sativa oil
Type: in vivo, human
Protocol: A pregnant person diagnosed with gestational diabetes and treated with […] was administered daily with 5 ml sesame oil 100% w/v ([…]) and then co-administered with 5 ml sesame oil 100% w/v (Naissance) and 5 ml 100% w/v Nigella sativa oil (Better Flex). During oil treatment glucamin was not administered.
Blood glucose levels (mg/dL) were determined at the indicated hours.

Work on `NC(=O)CC[C@H](N)C(=O)O` [glutamin] yielded a Blood glucose levels (6 AM, 10 Sep. 2020) of 172 mg/dL, a Blood glucose levels (6 AM, 11 Sep. 2020) of 125 mg/dL and a Blood glucose levels (6 AM, 12 Sep. 2020) of 101 mg/dL. The Blood glucose levels (6 AM, 13 Sep. 2020) was 113 mg/dL, the Blood glucose levels (6 AM, 14 Sep. 2020) was 94 mg/dL and the Blood glucose levels (6 AM, 15 Sep. 2020) was 158 mg/dL. It also gave a Blood glucose levels (6 AM, 16 Sep. 2020) of 148 mg/dL, a Blood glucose levels (6 AM, 17 Sep. 2020) of 99 mg/dL and a Blood glucose levels (6 AM, 18 Sep. 2020) of 94 mg/dL. The Blood glucose levels (11 AM, 10 Sep. 2020) was 154 mg/dL, the Blood glucose levels (11 AM, 11 Sep. 2020) was 109 mg/dL and the Blood glucose levels (11 AM, 12 Sep. 2020) was 88 mg/dL. It also gave a Blood glucose levels (11 AM, 13 Sep. 2020) of 84 mg/dL, a Blood glucose levels (11 AM, 14 Sep. 2020) of 90 mg/dL and a Blood glucose levels (11 AM, 15 Sep. 2020) of 159 mg/dL. The Blood glucose levels (11 AM, 17 Sep. 2020) was 124 mg/dL, the Blood glucose levels (11 AM, 18 Sep. 2020) was 84 mg/dL and the Blood glucose levels (15 PM, 10 Sep. 2020) was 122 mg/dL. It also gave a Blood glucose levels (15 PM, 11 Sep. 2020) of 126 mg/dL, a Blood glucose levels (15 PM, 12 Sep. 2020) of 106 mg/dL and a Blood glucose levels (15 PM, 13 Sep. 2020) of 125 mg/dL. It also gave a Blood glucose levels (15 PM, 14 Sep. 2020) of 134 mg/dL, a Blood glucose levels (15 PM, 15 Sep. 2020) of 98 mg/dL and a Blood glucose levels (15 PM, 16 Sep. 2020) of 154 mg/dL. The Blood glucose levels (15 PM, 17 Sep. 2020) was 90 mg/dL, the Blood glucose levels (15 PM, 18 Sep. 2020) was 89 mg/dL and the Blood glucose levels (15 PM, 21 Sep. 2020) was 109 mg/dL. For the same molecule, the Blood glucose levels (21 PM, 10 Sep. 2020) was 97 mg/dL, the Blood glucose levels (21 PM, 11 Sep. 2020) was 103 mg/dL and the Blood glucose levels (21 PM, 12 Sep. 2020) was 95 mg/dL. For the same molecule, the Blood glucose levels (21 PM, 13 Sep. 2020) was 80 mg/dL, the Blood glucose levels (21 PM, 14 Sep. 2020) was 125 mg/dL and the Blood glucose levels (21 PM, 15 Sep. 2020) was 83 mg/dL. For the same molecule, the Blood glucose levels (21 PM, 16 Sep. 2020) was 88 mg/dL, the Blood glucose levels (21 PM, 17 Sep. 2020) was 77 mg/dL and the Blood glucose levels (21 PM, 18 Sep. 2020) was 84 mg/dL. It also gave a Blood glucose levels (21 PM, 21 Sep. 2020) of 74 mg/dL.
